The record followed here is ChEMBL document CHEMBL4387773, “Identification of potent, selective and orally bioavailable phenyl ((R)-3-phenylpyrrolidin-3-yl)sulfone analogues as RORγt inverse agonists” (Bioorg Med Chem Lett, 2019).

The target in one series is T1, Oxysterols receptor LXR-alpha (Homo sapiens, UniProt Q13133).
T1 sequence (Q13133 whole entry): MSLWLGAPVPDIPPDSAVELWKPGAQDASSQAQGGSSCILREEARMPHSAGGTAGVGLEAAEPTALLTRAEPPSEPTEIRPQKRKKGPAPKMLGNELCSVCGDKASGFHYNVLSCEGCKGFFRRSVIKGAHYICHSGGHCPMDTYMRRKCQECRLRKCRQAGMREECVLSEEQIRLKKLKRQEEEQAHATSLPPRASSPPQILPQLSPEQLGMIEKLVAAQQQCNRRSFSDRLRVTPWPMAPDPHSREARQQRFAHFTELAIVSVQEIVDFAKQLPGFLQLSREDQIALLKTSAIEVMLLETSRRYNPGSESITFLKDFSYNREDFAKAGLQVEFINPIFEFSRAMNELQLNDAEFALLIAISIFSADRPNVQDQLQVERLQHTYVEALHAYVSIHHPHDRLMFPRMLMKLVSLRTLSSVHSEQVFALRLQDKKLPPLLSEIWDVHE
In words: Transactivation of human GAL4-fused LXRalpha expressed in African green monkey CV1 cells. It counts as cell-based.
Details: not given
The term EC50 denotes the concentration needed to bring the measured effect to its halfway point. As to `CC[C@]1(C(=O)O)CC[C@H](C(=O)N2CC[C@](c3ccc(C(F)(C(F)(F)F)C(F)(F)F)cc3)(S(=O)(=O)c3ccc(F)cc3)C2)CC1`, the concentration for a half-maximal effect (EC50) was over 7.5 µM.

`O=C(O)C12CCC(C(=O)N3CC[C@](c4ccc(C(F)(C(F)(F)F)C(F)(F)F)cc4)(S(=O)(=O)c4ccc(F)cc4)C3)(CC1)C2` displayed an EC50 of over 7.5 µM.

The compound `COC(=O)[C@H]1CC[C@H](C(=O)N2CC[C@](c3ccc(C(F)(C(F)(F)F)C(F)(F)F)cc3)(S(=O)(=O)c3ccc(F)cc3)C2)CC1` returned an EC50 of over 7.5 µM.

Take `O=C(N1CC[C@](c2ccc(C(F)(C(F)(F)F)C(F)(F)F)cc2)(S(=O)(=O)c2ccc(F)cc2)C1)C12CCC(C(=O)O)(CC1)OC2`: the EC50 was over 7.5 µM.

Another series concerns the target T2, Nuclear receptor ROR-beta (Homo sapiens, UniProt Q92753).
T2 sequence (Q92753 whole entry): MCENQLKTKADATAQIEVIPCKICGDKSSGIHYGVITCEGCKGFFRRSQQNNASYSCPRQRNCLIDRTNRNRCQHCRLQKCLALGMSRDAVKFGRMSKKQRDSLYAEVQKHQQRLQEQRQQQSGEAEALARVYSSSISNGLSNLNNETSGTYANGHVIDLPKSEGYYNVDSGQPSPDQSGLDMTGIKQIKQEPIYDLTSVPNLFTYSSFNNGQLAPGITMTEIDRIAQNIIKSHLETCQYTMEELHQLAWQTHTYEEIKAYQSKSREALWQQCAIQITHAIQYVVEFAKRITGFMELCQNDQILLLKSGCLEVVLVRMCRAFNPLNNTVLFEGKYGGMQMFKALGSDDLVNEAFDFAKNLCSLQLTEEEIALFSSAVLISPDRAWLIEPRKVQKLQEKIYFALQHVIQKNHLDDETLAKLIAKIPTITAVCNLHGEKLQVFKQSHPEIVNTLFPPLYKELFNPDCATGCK
The series can be described thus: Inverse agonist activity at human Gal4-fused RORbeta LBD (200 to 559 residues) expressed in human Jurkat cells measured after 18 hrs by steady-glo luciferase reporter gene assay. The class given is cell-based.
Details: not given
`CC[C@]1(C(=O)O)CC[C@H](C(=O)N2CC[C@](c3ccc(C(F)(C(F)(F)F)C(F)(F)F)cc3)(S(=O)(=O)c3ccc(F)cc3)C2)CC1` had an EC50 of over 40 µM.

With `O=C(O)C12CCC(C(=O)N3CC[C@](c4ccc(C(F)(C(F)(F)F)C(F)(F)F)cc4)(S(=O)(=O)c4ccc(F)cc4)C3)(CC1)C2`, the EC50 was over 40 µM.

In turn, `COC(=O)[C@H]1CC[C@H](C(=O)N2CC[C@](c3ccc(C(F)(C(F)(F)F)C(F)(F)F)cc3)(S(=O)(=O)c3ccc(F)cc3)C2)CC1` gave a concentration for a half-maximal effect (EC50) of over 40 µM.

`O=C(N1CC[C@](c2ccc(C(F)(C(F)(F)F)C(F)(F)F)cc2)(S(=O)(=O)c2ccc(F)cc2)C1)C12CCC(C(=O)O)(CC1)OC2` registered an EC50 of over 40 µM.

Another series addresses T3, PXR (Homo sapiens, UniProt O75469).
T3 sequence (O75469 whole entry): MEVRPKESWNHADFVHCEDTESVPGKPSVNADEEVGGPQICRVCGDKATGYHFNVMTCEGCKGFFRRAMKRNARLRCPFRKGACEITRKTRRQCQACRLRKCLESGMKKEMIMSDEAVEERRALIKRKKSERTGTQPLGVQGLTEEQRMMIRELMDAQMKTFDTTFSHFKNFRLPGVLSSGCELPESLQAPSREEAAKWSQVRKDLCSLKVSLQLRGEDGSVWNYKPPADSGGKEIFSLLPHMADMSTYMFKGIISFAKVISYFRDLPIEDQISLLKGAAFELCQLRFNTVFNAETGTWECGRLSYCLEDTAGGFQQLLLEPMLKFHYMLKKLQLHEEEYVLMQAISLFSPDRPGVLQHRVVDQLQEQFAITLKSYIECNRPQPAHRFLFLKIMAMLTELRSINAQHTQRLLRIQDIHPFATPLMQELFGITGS
The series can be described thus: Transactivation of PXR (unknown origin) expressed in human HepG2 cells assessed as maximum receptor activation response relative to control. It counts as cell-based. Conditions: human HepG2 cells that express PXR, read-out: %max.
As for `CC[C@]1(C(=O)O)CC[C@H](C(=O)N2CC[C@](c3ccc(C(F)(C(F)(F)F)C(F)(F)F)cc3)(S(=O)(=O)c3ccc(F)cc3)C2)CC1`, the Emax is 6%.

In the case of `O=C(N1CC[C@](c2ccc(C(F)(C(F)(F)F)C(F)(F)F)cc2)(S(=O)(=O)c2ccc(F)cc2)C1)C12CCC(C(=O)O)(CC1)OC2`, the Emax was 5%.

System in a further series: not listed separately
In words: Stability in human liver microsomes assessed as parent compound remaining after 10 mins. It counts as ADME, Microsome. Conditions: liver microsomes, read-out: Stability.
In the case of `CC[C@]1(C(=O)O)CC[C@H](C(=O)N2CC[C@](c3ccc(C(F)(C(F)(F)F)C(F)(F)F)cc3)(S(=O)(=O)c3ccc(F)cc3)C2)CC1`, the remaining at 10 min amounted to 100%.

For a further series, the target named is T4, Oxysterols receptor LXR-beta (Homo sapiens, UniProt P55055).
T4 sequence (P55055 whole entry): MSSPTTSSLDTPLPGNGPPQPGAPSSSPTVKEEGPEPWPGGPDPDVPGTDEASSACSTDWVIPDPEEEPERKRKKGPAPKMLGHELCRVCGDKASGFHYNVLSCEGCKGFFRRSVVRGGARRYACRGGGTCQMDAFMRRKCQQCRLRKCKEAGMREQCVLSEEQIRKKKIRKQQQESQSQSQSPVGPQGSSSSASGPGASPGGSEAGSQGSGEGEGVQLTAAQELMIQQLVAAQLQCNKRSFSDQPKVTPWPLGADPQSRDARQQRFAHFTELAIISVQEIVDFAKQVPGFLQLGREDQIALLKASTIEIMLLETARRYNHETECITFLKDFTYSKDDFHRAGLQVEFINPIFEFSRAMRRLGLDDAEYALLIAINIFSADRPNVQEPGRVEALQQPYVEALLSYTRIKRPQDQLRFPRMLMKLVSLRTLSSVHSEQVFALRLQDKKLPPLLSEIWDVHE
The series can be described thus: Transactivation of human GAL4-fused LXRbeta expressed in African green monkey CV1 cells.
Details: not given
The class given is cell-based.
As for `CC[C@]1(C(=O)O)CC[C@H](C(=O)N2CC[C@](c3ccc(C(F)(C(F)(F)F)C(F)(F)F)cc3)(S(=O)(=O)c3ccc(F)cc3)C2)CC1`, the EC50 was over 7.5 µM.

For the compound `O=C(O)C12CCC(C(=O)N3CC[C@](c4ccc(C(F)(C(F)(F)F)C(F)(F)F)cc4)(S(=O)(=O)c4ccc(F)cc4)C3)(CC1)C2`, the concentration for a half-maximal effect (EC50) was over 7.5 µM.

`COC(=O)[C@H]1CC[C@H](C(=O)N2CC[C@](c3ccc(C(F)(C(F)(F)F)C(F)(F)F)cc3)(S(=O)(=O)c3ccc(F)cc3)C2)CC1` gave an EC50 of over 7.5 µM.

`O=C(N1CC[C@](c2ccc(C(F)(C(F)(F)F)C(F)(F)F)cc2)(S(=O)(=O)c2ccc(F)cc2)C1)C12CCC(C(=O)O)(CC1)OC2` gave a half-maximal effective concentration (EC50) of over 7.5 µM.

The next series has as its target T5, Nuclear receptor subfamily 1 group I member 2 (Homo sapiens, UniProt O75469).
T5 sequence (O75469 whole entry): T3 sequence (O75469 whole entry)
The series can be described thus: Transactivation of PXR (unknown origin) expressed in human HepG2 cells. It counts as cell-based.
Details: not given
`CC[C@]1(C(=O)O)CC[C@H](C(=O)N2CC[C@](c3ccc(C(F)(C(F)(F)F)C(F)(F)F)cc3)(S(=O)(=O)c3ccc(F)cc3)C2)CC1` yielded a concentration for a half-maximal effect (EC50) of over 50 µM.

In turn, `O=C(N1CC[C@](c2ccc(C(F)(C(F)(F)F)C(F)(F)F)cc2)(S(=O)(=O)c2ccc(F)cc2)C1)C12CCC(C(=O)O)(CC1)OC2` registered a concentration giving a half-maximal response (EC50) of over 50 µM.

Another series deals with T6, Nuclear receptor ROR-alpha (Homo sapiens, UniProt P35398).
T6 sequence (P35398 whole entry): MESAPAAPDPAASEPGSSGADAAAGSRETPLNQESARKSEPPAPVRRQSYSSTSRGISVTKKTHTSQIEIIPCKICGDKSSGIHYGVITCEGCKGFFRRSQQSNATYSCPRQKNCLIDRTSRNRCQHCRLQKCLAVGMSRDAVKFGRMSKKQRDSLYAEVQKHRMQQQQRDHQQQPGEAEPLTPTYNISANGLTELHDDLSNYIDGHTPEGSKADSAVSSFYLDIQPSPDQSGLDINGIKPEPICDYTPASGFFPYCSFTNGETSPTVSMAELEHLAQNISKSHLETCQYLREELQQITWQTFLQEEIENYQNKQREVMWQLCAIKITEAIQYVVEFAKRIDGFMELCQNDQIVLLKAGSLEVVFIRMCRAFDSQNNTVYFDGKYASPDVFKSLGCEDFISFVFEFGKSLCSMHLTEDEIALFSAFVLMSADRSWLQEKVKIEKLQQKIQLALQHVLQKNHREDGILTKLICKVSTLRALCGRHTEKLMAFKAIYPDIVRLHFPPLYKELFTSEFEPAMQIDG
The series can be described thus: Inverse agonist activity at human Gal4-fused RORalpha LBD (272 to 556 residues) expressed in human Jurkat cells measured after 18 hrs by steady-glo luciferase reporter gene assay. It counts as cell-based.
Details: not given
`CC[C@]1(C(=O)O)CC[C@H](C(=O)N2CC[C@](c3ccc(C(F)(C(F)(F)F)C(F)(F)F)cc3)(S(=O)(=O)c3ccc(F)cc3)C2)CC1` had a half-maximal effective concentration (EC50) of over 40 µM.

In the case of `O=C(O)C12CCC(C(=O)N3CC[C@](c4ccc(C(F)(C(F)(F)F)C(F)(F)F)cc4)(S(=O)(=O)c4ccc(F)cc4)C3)(CC1)C2`, the EC50 is over 40 µM.

`COC(=O)[C@H]1CC[C@H](C(=O)N2CC[C@](c3ccc(C(F)(C(F)(F)F)C(F)(F)F)cc3)(S(=O)(=O)c3ccc(F)cc3)C2)CC1` gave an EC50 of over 40 µM.

For `O=C(N1CC[C@](c2ccc(C(F)(C(F)(F)F)C(F)(F)F)cc2)(S(=O)(=O)c2ccc(F)cc2)C1)C12CCC(C(=O)O)(CC1)OC2`, the half-maximal effective concentration (EC50) is over 40 µM.
